Results on one molecule are retold here after patent publication US4272437A, “Antibacterial agents, and 4-thio azetidinone intermediates” (priority 1979, dated 1981).

Common to all, as to assay type: cell-based
One test deals with Str. pneumoniae A-9585. Put plainly: MIC, tube dilution, Streptococcus pneumoniae A9585. Conditions: Streptococcus pneumoniae, A9585, Str. pneumoniae A9585; overnight 37° C., Nutrient Broth; read-out: Minimum Inhibitory Concentration (M.I.C.). From the text: (§1) Representative compounds of the present invention were subjected to in vitro antibiotic screening against a variety of microorganisms.

The subject of a further test is Staph. aureus A-9537. Put plainly: MIC, tube dilution, Staphylococcus aureus A9537. The settings on record: Staphylococcus aureus, A9537, Staph. aureus A9537; overnight 37° C., Nutrient Broth; read-out: Minimum Inhibitory Concentration (M.I.C.).
Source text: as §1

Another test relates to Pr. mirabilis A-9900. Put plainly: MIC, tube dilution, Proteus mirabilis A9900. Conditions: Proteus mirabilis, A9900, Proteus mirabilis A9900; overnight 37° C.; read-out: Minimum Inhibitory Concentration (M.I.C.).
Source text: as §1

The test system of a further test is Proteus rettgeri A21203. The test is described as follows: MIC, tube dilution, Proteus rettgeri A21203. The settings on record: Providencia rettgeri, A21203, Proteus rettgeri A21203; overnight 37° C.; read-out: Minimum Inhibitory Concentration (M.I.C.).
Source text: as §1

The structures appear in SMILES notation. In brackets after ≈: the same amount, converted by molar mass.

Consider `NCCCCC1=C(C(=O)O)N2C(=O)CC2S1` (stereo not shown) [Example 73, 2-(4'-Aminobutyl)-penem-3-carboxylic Acid], for which the MIC in the test with Str. pneumoniae A-9585 turned out to be 0.13 µg/mL (≈ 0.537 µM); in the test with Staph. aureus A-9537, 0.25 µg/mL (≈ 1.03 µM); with Pr. mirabilis A-9900, 8 µg/mL (≈ 33 µM); in the test with Proteus rettgeri A21203 it was 16 µg/mL (≈ 66 µM).
